Assays:
[1] = biological target: T1, Cysteinyl leukotriene receptor 1 (Homo sapiens, UniProt Q9Y271)
T1 sequence (Q9Y271 whole entry): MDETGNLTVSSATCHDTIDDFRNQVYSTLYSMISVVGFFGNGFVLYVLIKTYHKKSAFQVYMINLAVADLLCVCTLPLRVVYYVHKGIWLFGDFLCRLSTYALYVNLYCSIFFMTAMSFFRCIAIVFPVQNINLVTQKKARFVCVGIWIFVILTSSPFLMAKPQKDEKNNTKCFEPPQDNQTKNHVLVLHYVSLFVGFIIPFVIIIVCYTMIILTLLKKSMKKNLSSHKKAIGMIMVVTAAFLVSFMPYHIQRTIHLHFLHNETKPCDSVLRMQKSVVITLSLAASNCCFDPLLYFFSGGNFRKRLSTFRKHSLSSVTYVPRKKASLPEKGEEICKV

[2] = biological target: T2, Cysteinyl leukotriene receptor 2 (Homo sapiens, UniProt Q9NS75)
T2 sequence (Q9NS75 whole entry): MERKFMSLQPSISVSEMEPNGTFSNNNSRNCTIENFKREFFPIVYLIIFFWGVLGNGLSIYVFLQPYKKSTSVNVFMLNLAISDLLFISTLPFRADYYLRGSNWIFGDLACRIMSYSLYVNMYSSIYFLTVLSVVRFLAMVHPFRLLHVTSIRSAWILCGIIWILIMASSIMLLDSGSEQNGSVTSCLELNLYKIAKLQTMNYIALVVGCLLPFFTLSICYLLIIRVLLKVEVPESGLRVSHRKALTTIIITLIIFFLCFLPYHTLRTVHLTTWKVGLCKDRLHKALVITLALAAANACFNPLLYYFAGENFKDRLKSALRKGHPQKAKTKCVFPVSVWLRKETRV

Row | SMILES | Ki [1] [nM] | Ki [2] [nM]
1 | CN(C)C(=O)CCSC(SCCC(=O)O)c1cccc(/C=C/c2ccc3ccc(Cl)cc3n2)c1 (stereo not drawn) [3-(((3-(2-(7-chloroquinoline-2-yl)ethenyl)phenyl)((3-dimethylamino-3-oxopropyl)thio)methyl)thio)propanoic acid] | 10.4 | 1000
2 | CCCCC/C=C\C/C=C/C=C/C=C/[C@@H](Sc1ccc(C(=O)O)cc1)[C@@H](O)CCCC(=O)O [CAS_134733-55-4] | – | 300
